Results as given in ChEMBL document CHEMBL1156602, “Synthesis and antiviral properties of some polyphenols related to Salvia genus” (Bioorg Med Chem Lett, 2008).

Key:
[1] = tested on: Human immunodeficiency virus 1; assay: Antiviral activity against HIV1 in MT4 cells assessed as inhibition of virus-induced cytopathic effect by MTT assay; type: functional, organism-based; conditions: Human immunodeficiency virus 1, MT4
[2] = biological target: T1, Human immunodeficiency virus type 1 integrase (Human immunodeficiency virus 1, UniProt Q7ZJM1); assay: Inhibition of HIV1 integrase by overall integration assay
T1 sequence (Q7ZJM1 whole entry): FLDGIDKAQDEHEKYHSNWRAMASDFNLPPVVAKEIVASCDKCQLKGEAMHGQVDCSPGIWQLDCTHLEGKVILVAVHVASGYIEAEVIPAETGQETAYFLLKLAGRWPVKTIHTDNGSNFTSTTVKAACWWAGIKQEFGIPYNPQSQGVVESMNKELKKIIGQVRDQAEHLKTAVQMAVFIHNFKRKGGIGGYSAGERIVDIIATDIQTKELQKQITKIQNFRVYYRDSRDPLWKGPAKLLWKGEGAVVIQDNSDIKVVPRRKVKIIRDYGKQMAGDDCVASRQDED

[3] = biological target: T1, Human immunodeficiency virus type 1 integrase; assay: Inhibition of HIV1 integrase strand transfer activity
[4] = Cytotoxicity against human MT4 cells by MTT assay; type: cell-based
[5] = biological target: T1, Human immunodeficiency virus type 1 integrase; assay: Inhibition of HIV1 integrase in presence of Mn2+
[6] = Cytotoxicity against human MT2 cells after 48 hrs; type: cell-based; conditions: read-out: LD50
[7] = tested on: Human immunodeficiency virus 1; assay: Antiviral activity against HIV1 LAI in MT2 cells assessed as inhibition of virus-induced cytopathic effect; type: functional; conditions: Human immunodeficiency virus 1, LAI, read-out: ED50 (the source's name)
[8] = biological target: T1, Human immunodeficiency virus type 1 integrase; assay: Inhibition of HIV1 integrase catalyzed reactions

IC50 [5] [nM] | SMILES | EC50 [1] [nM] | IC50 [2] [nM] | IC50 [3] [nM] | CC50 [4] [nM] | CC50 at 48 h [6] [nM] | EC50 [7] [nM] | IC50 [8] [nM]
– | O=C(O)/C=C/c1ccc(O)c2c1C1C(=O)c3cc(O)c(O)cc3C1O2 (racemic) | > 23300 | 150 | 300 | 23300 | – | – | –
2800 | O=C(O)/C=C/c1ccc(O)c(O)c1 [CAFFEIC ACID] | – | 2800 | 24000 | – | – | – | –
– | O=C(/C=C/c1ccc(O)c(O)c1)O[C@@H]1C[C@](O)(C(=O)O)C[C@@H](OC(=O)/C=C/c2ccc(O)c(O)c2)[C@H]1O | – | – | – | – | 300000 | 1900 | 640
– | O=C(/C=C/c1ccc(O)c(O)c1)O[C@@H](C(=O)O)[C@@H](OC(=O)/C=C/c1ccc(O)c(O)c1)C(=O)O [CICHORIC ACID] | – | – | – | – | 700000 | – | –
– | O=C(O)/C=C/c1ccc(O)c(O)c1/C(=C/c1ccc(O)c(O)c1)C(=O)O | > 4500 | 560 | 730 | 4500 | – | – | –
– | O=C(O)/C=C/c1ccc(O)c(O)c1CC(=O)O | > 44000 | 1340 | 1090 | 44000 | – | – | –
